Type in all cases: functional
One assay relates to Enterococcus faecium. Put plainly: Antibacterial activity against Enterococcus faecium MMC4 after 24 hrs by broth microdilution method. The settings on record: MMC4, 24 h. (Dilution methods test growth across graded concentrations, often in twofold steps.)
In a further assay the test system is Klebsiella aerogenes. Put plainly: Antibacterial activity against Enterobacter aerogenes after 24 hrs by broth microdilution method.
Another assay relates to Pseudomonas aeruginosa. Kind of assay: Antibacterial activity against Pseudomonas aeruginosa PAO1 after 24 hrs by broth microdilution method. The conditions noted are these: PAO1, 24 h.
A further assay deals with Klebsiella pneumoniae. Put plainly: Antibacterial activity against Klebsiella pneumoniae BAMS clinical isolate 07-18 after 24 hrs by broth microdilution method. The settings on record: BAMS clinical isolate 07-18, 24 h.
Another assay relates to Acinetobacter baumannii. Put plainly: Antibacterial activity against Acinetobacter baumannii WRAIR clinical isolate 13 after 24 hrs by broth microdilution method. The conditions noted are these: WRAIR clinical isolate 13, 24 h.
The subject of the next assay is Staphylococcus aureus. Kind of assay: Antibacterial activity against methicillin-sensitive Staphylococcus aureus UAMS-1 after 24 hrs by broth microdilution method. The settings on record: UAMS-1, 24 h.

≈ marks a conversion by molar mass, not a printed value. Square brackets hold non-standard residues; d marks the D form. Peptide text beside a SMILES is read from it. ξ: configuration not given here. Pro(3ξ,4ξ-(CH2)4) = O=C(O)[C@H]1NCC2CCCCC21; Tic = O=C(O)[C@@H]1Cc2ccccc2CN1; Dab = NCC[C@H](N)C(=O)O

Among the data in ChEMBL document CHEMBL2375306, “Antimicrobial peptides containing unnatural amino acid exhibit potent bactericidal activity against ESKAPE pathogens” (Bioorg Med Chem, 2013) are MBC and MIC values, retold here.

Usually MBC stands for the smallest concentration meeting the test's criterion for killing. Higher therefore signals less potent killing. In general, MIC refers to the smallest concentration in the dilution series that meets the test's criterion for growth inhibition. The low end stands for a more susceptible organism, the high end for a less susceptible organism.

Turning to `CC(C)C[C@H](NC(=O)[C@@H](N)CCCCN)C(=O)N1Cc2ccccc2C[C@H]1C(=O)N1CC2CCCCC2[C@H]1C(=O)N[C@@H](CCCCN)C(=O)NCC(=O)N1Cc2ccccc2C[C@H]1C(=O)N1CC2CCCCC2[C@H]1C(=O)N[C@@H](Cc1ccccc1)C(=O)N1Cc2ccccc2C[C@H]1C(=O)N1CC2CCCCC2[C@H]1C(=O)N[C@@H](CCCCN)C(=O)NCC(=O)N1Cc2ccccc2C[C@H]1C(=O)N1CC2CCCCC2[C@H]1C(=O)N[C@@H](Cc1ccccc1)C(=O)N1Cc2ccccc2C[C@H]1C(=O)N1CC2CCCCC2[C@H]1C(=O)N[C@@H](CCCCN)C(=O)NCC(=O)N1Cc2ccccc2C[C@H]1C(=O)N1CC2CCCCC2[C@H]1C(=O)N[C@@H](CCCCN)C(=O)N[C@@H](CCCCN)C(=O)N[C@@H](CCCCN)C(=O)N[C@@H](CCCCN)C(N)=O` (stereo partly specified) (H-KL[Tic][Pro(3ξ,4ξ-(CH2)4)]KG[Tic][Pro(3ξ,4ξ-(CH2)4)]F[Tic][Pro(3ξ,4ξ-(CH2)4)]KG[Tic][Pro(3ξ,4ξ-(CH2)4)]F[Tic][Pro(3ξ,4ξ-(CH2)4)]KG[Tic][Pro(3ξ,4ξ-(CH2)4)]KKKK-NH2), the minimum bactericidal concentration (MBC) is 6.25 µg/mL (≈ 1.79 µM) in the assay with Enterococcus faecium; greater than 100 µg/mL in the assay on Klebsiella aerogenes; 50 µg/mL (≈ 14.4 µM) in the assay with Pseudomonas aeruginosa; 100 µg/mL (≈ 28.7 µM) in the assay on Klebsiella pneumoniae; 12.5 µg/mL (≈ 3.59 µM) in the assay on Acinetobacter baumannii; 50 µg/mL (≈ 14.4 µM) in the assay on Staphylococcus aureus. Further, the MIC against Enterococcus faecium is 6.25 µg/mL (≈ 1.79 µM); against Klebsiella aerogenes it was greater than 100 µg/mL; against Pseudomonas aeruginosa, 50 µg/mL (≈ 14.4 µM); against Klebsiella pneumoniae, 50 µg/mL (≈ 14.4 µM); with Acinetobacter baumannii, 12.5 µg/mL (≈ 3.59 µM); against Staphylococcus aureus, 50 µg/mL (≈ 14.4 µM).
On to `CC(C)C[C@H](NC(=O)[C@@H](N)CCN)C(=O)N1Cc2ccccc2C[C@H]1C(=O)N1CC2CCCCC2[C@H]1C(=O)N[C@@H](CCN)C(=O)N1Cc2ccccc2C[C@H]1C(=O)N1CC2CCCCC2[C@H]1C(=O)N[C@@H](Cc1ccccc1)C(=O)N1Cc2ccccc2C[C@H]1C(=O)N1CC2CCCCC2[C@H]1C(=O)N[C@@H](CCN)C(=O)N1Cc2ccccc2C[C@H]1C(=O)N1CC2CCCCC2[C@H]1C(=O)N[C@@H](Cc1ccccc1)C(=O)N1Cc2ccccc2C[C@H]1C(=O)N1CC2CCCCC2[C@H]1C(=O)N[C@@H](CCN)C(=O)N1Cc2ccccc2C[C@H]1C(=O)N1CC2CCCCC2[C@H]1C(=O)N[C@@H](CCN)C(=O)N[C@@H](CCN)C(=O)N[C@@H](CCN)C(=O)N[C@@H](CCN)C(N)=O` (stereo partly specified) (H-[Dab]L[Tic][Pro(3ξ,4ξ-(CH2)4)][Dab][Tic][Pro(3ξ,4ξ-(CH2)4)]F[Tic][Pro(3ξ,4ξ-(CH2)4)][Dab][Tic][Pro(3ξ,4ξ-(CH2)4)]F[Tic][Pro(3ξ,4ξ-(CH2)4)][Dab][Tic][Pro(3ξ,4ξ-(CH2)4)][Dab][Dab][Dab][Dab]-NH2), for which the MBC in the assay with Enterococcus faecium was found to be 25 µg/mL (≈ 8.1 µM); against Klebsiella aerogenes it was 50 µg/mL (≈ 16.2 µM); with Pseudomonas aeruginosa it was 100 µg/mL (≈ 32.4 µM); against Klebsiella pneumoniae it was 100 µg/mL (≈ 32.4 µM); in the assay on Acinetobacter baumannii, 100 µg/mL (≈ 32.4 µM); with Staphylococcus aureus it was 25 µg/mL (≈ 8.1 µM). In addition, the minimum inhibitory concentration (MIC) with Enterococcus faecium was 12.5 µg/mL (≈ 4.05 µM); with Klebsiella aerogenes it was 50 µg/mL (≈ 16.2 µM); against Pseudomonas aeruginosa it was 50 µg/mL (≈ 16.2 µM); against Klebsiella pneumoniae it was 50 µg/mL (≈ 16.2 µM); in the assay with Acinetobacter baumannii, 25 µg/mL (≈ 8.1 µM); against Staphylococcus aureus it was 25 µg/mL (≈ 8.1 µM).
Regarding `CC(=O)NCC(=O)N[C@@H](Cc1ccccc1)C(=O)N1Cc2ccccc2C[C@H]1C(=O)N1CC2CCCCC2[C@H]1C(=O)NCC(=O)N[C@@H](Cc1c[nH]c2ccccc12)C(=O)N1Cc2ccccc2C[C@H]1C(=O)N1CC2CCCCC2[C@H]1C(=O)NCC(=O)N[C@@H](Cc1ccccc1)C(=O)N1Cc2ccccc2C[C@H]1C(=O)N1CC2CCCCC2[C@H]1C(=O)NCC(=O)N[C@@H](Cc1c[nH]c2ccccc12)C(=O)N1Cc2ccccc2C[C@H]1C(=O)N[C@@H](CCCCN)C(=O)N[C@@H](CCCCN)C(=O)N[C@@H](CCCCN)C(=O)N[C@@H](CCCCN)C(N)=O` (stereo partly specified) (Ac-GF[Tic][Pro(3ξ,4ξ-(CH2)4)]GW[Tic][Pro(3ξ,4ξ-(CH2)4)]GF[Tic][Pro(3ξ,4ξ-(CH2)4)]GW[Tic]KKKK-NH2), the MBC in the assay with Enterococcus faecium was 100 µg/mL (≈ 39.1 µM); with Klebsiella aerogenes, greater than 100 µg/mL; against Pseudomonas aeruginosa, greater than 100 µg/mL; in the assay on Klebsiella pneumoniae, greater than 100 µg/mL; against Acinetobacter baumannii it was 100 µg/mL (≈ 39.1 µM); against Staphylococcus aureus it was greater than 100 µg/mL. Besides, the MIC against Enterococcus faecium was 25 µg/mL (≈ 9.78 µM); against Klebsiella aerogenes, greater than 100 µg/mL; with Pseudomonas aeruginosa, greater than 100 µg/mL; in the assay on Klebsiella pneumoniae it was greater than 100 µg/mL; against Acinetobacter baumannii it was 25 µg/mL (≈ 9.78 µM); with Staphylococcus aureus, greater than 100 µg/mL.
